Test results taken from the supplement of paper PMC9663587.

Key:
[1] = compound: CCc1cnn2c(NCc3ccc[n+]([O-])c3)cc(N3CCCC[C@H]3CCO)nc12
LEE011/Ribociclib = compound: CN(C)C(=O)c1cc2cnc(Nc3ccc(N4CCNCC4)cn3)nc2n1C1CCCC1 [LEE011/Ribociclib]
Doxorubicin = compound: COc1cccc2c1C(=O)c1c(O)c3c(c(O)c1C2=O)C[C@@](O)(C(=O)CO)C[C@@H]3O[C@H]1C[C@H](N)[C@H](O)[C@H](C)O1 [Doxorubicin]
Pictilisib/GDC0941 = compound: CS(=O)(=O)N1CCN(Cc2cc3nc(-c4cccc5[nH]ncc45)nc(N4CCOCC4)c3s2)CC1 [Pictilisib/GDC0941]
Ceritinib/LDK378 = compound: Cc1cc(Nc2ncc(Cl)c(Nc3ccccc3S(=O)(=O)C(C)C)n2)c(OC(C)C)cc1C1CCNCC1 [Ceritinib/LDK378]
[2] = compound: Cc1nn(C)c(COc2ccc(N3CCN(S(=O)(=O)N(C)C)CC3)cc2)c1-c1cccc2c(CCCOc3cccc4ccccc34)c(C(=O)O)n(CCN3CCOCC3)c12
YKL-5-124 = compound: C=CC(=O)Nc1ccc(C(=O)Nc2[nH]nc3c2CN(C(=O)N[C@H](CN(C)C)c2ccccc2)C3(C)C)cc1 [YKL-5-124]; assay: increase in dead-cell fraction, 72 h; higher = more death;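 also: breast cancer cell lines in 384-well plates, stained with Hoechst plus LIVE/DEAD far red dye and imaged, cells above an LDR intensity threshold counted dead, Hoechst-negative corpses included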
BSJ-03-123 = compound: CC(=O)c1c(C)c2cnc(Nc3ccc(N4CCN(CCOCCOCCOCCNC(=O)COc5cccc6c5C(=O)N(C5CCC(=O)NC5=O)C6=O)CC4)cn3)nc2n(C2CCCC2)c1=O [BSJ-03-123]; assay: as above
[3] = compound: CC(=O)c1c(C)c2cnc(Nc3ccc(N4CCNCC4)cn3)nc2n(C2CCCC2)c1=O; assay: as above
[4] = compound: CCN1CCN(Cc2ccc(Nc3ncc(F)c(-c4cc(F)c5nc(C)n(C(C)C)c5c4)n3)nc2)CC1; assay: as above
Neratinib/HKI272 = compound: CCOc1cc2ncc(C#N)c(Nc3ccc(OCc4ccccn4)c(Cl)c3)c2cc1NC(=O)/C=C/CN(C)C [Neratinib/HKI272]; assay: as above
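For GR50, 72 h in this document: breast cancer and non-malignant breast epithelial cell lines, Deep Dye Drop or Dye Drop imaging, nine half-log doses, GR normalized to time-zero plates and DMSO-only controls.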

In the case of SUM52PE, the “GR50, 72 h” value [1] is reported as 0.0196 µM, the “GR50, 72 h” value (LEE011/Ribociclib) is reported as > 10 µM and the “GR50, 72 h” value (Doxorubicin) is reported as 0.049 µM. The “GR50, 72 h” value (Pictilisib/GDC0941) was 0.477 µM, the “GR50, 72 h” value (Ceritinib/LDK378) was > 10 µM and the “GR50, 72 h” value [2] was 8.59 µM. The “increase in dead-cell fraction” value (YKL-5-124; 0.001 µM) was 0.0072, the “increase in dead-cell fraction” value (YKL-5-124; 0.003162 µM) was 0.0054 and the “increase in dead-cell fraction” value (YKL-5-124; 0.01 µM) was 0.0099. For the same cell line, the “increase in dead-cell fraction” value (YKL-5-124; 0.03162 µM) was 0.0108, the “increase in dead-cell fraction” value (YKL-5-124; 0.1 µM) was 0.013 and the “increase in dead-cell fraction” value (YKL-5-124; 0.3162 µM) was 0.0189. For the same cell line, the “increase in dead-cell fraction” value (YKL-5-124; 1 µM) was 0.009, the “increase in dead-cell fraction” value (YKL-5-124; 3.162 µM) was 0.0202 and the “increase in dead-cell fraction” value (YKL-5-124; 10 µM) was 0.0275. The “increase in dead-cell fraction” value (BSJ-03-123; 0.001 µM) was -0.0027, the “increase in dead-cell fraction” value (BSJ-03-123; 0.003162 µM) was 0.001 and the “increase in dead-cell fraction” value (BSJ-03-123; 0.01 µM) was 0.0043. For the same cell line, the “increase in dead-cell fraction” value (BSJ-03-123; 0.03162 µM) was 0.0027, the “increase in dead-cell fraction” value (BSJ-03-123; 0.1 µM) was 0.0025 and the “increase in dead-cell fraction” value (BSJ-03-123; 0.3162 µM) was 0.0035. The “increase in dead-cell fraction” value (BSJ-03-123; 1 µM) was 0.0021, the “increase in dead-cell fraction” value (BSJ-03-123; 3.162 µM) was 0.0075 and the “increase in dead-cell fraction” value (BSJ-03-123; 10 µM) was 0.025. For the same cell line, the “increase in dead-cell fraction” value ([3]; 0.0003162 µM) was 0.0036, the “increase in dead-cell fraction” value ([3]; 0.001 µM) was -0.0018 and the “increase in dead-cell fraction” value ([3]; 0.003162 µM) was -0.0008. The “increase in dead-cell fraction” value ([3]; 0.01 µM) was 0.0002, the “increase in dead-cell fraction” value ([3]; 0.03162 µM) was -0.0011 and the “increase in dead-cell fraction” value ([3]; 0.1 µM) was 0.0033. For the same cell line, the “increase in dead-cell fraction” value ([3]; 0.3162 µM) was 0.0047, the “increase in dead-cell fraction” value ([3]; 1 µM) was 0.006 and the “increase in dead-cell fraction” value ([3]; 3.162 µM) was 0.0091. The “increase in dead-cell fraction” value ([4]; 0.001 µM) was -0.0031, the “increase in dead-cell fraction” value ([4]; 0.003162 µM) was -0.0003 and the “increase in dead-cell fraction” value ([4]; 0.01 µM) was 0.0005. The “increase in dead-cell fraction” value ([4]; 0.03162 µM) was 0.0052, the “increase in dead-cell fraction” value ([4]; 0.1 µM) was 0.0077 and the “increase in dead-cell fraction” value ([4]; 0.3162 µM) was 0.0061. The “increase in dead-cell fraction” value ([4]; 1 µM) was 0.0107, the “increase in dead-cell fraction” value ([4]; 3.162 µM) was 0.0058 and the “increase in dead-cell fraction” value ([4]; 10 µM) was 0.0135. The “increase in dead-cell fraction” value (Neratinib/HKI272; 0.0003162 µM) was -0.0009, the “increase in dead-cell fraction” value (Neratinib/HKI272; 0.001 µM) was 0.0018 and the “increase in dead-cell fraction” value (Neratinib/HKI272; 0.003162 µM) was 0.0022. For the same cell line, the “increase in dead-cell fraction” value (Neratinib/HKI272; 0.01 µM) was 0.0007, the “increase in dead-cell fraction” value (Neratinib/HKI272; 0.03162 µM) was 0.0026 and the “increase in dead-cell fraction” value (Neratinib/HKI272; 0.1 µM) was 0.0033.
